Columns and labels:
[1] = Proportion of particles of 75 μm or more (Air Jet Sieve); assay type: physicochemical; settings: excipient powder
Description: Five grams of trehalose was weighed onto a screen having a screen opening of 75 μm, and sifted with Air Jet Sieve (Model 200LS, mfd. by ALPINE) for 5 minutes, and the weight percentage of the weight of particles remaining on the screen based on the total weight of particles was calculated as the proportion of particles of 75 μm or more.

[2] = Average particle size (sieving, 50% cumulative weight); assay type: physicochemical; settings: excipient powder
Description: Five grams of trehalose was sifted through screens having screen openings of 500 μm, 300 μm and 250 μm, respectively, and then sifted with Air Jet Sieve by using screens having screen openings of 150 μm, 75 μm, 45 μm, 38 μm and 32 μm, respectively. The oversize particle weight percentage [%] was calculated for each screen, and the average particle size is expressed as a particle size corresponding to a cumulative weight percentage of 50%.

[3] = Apparent specific volume; assay type: physicochemical; settings: excipient powder
Text: The whole of 10 g of trehalose powder was gently poured into a 100-ml measuring cylinder without making an impact (in this case, a cylinder having an outside diameter smaller than the inside diameter of the measuring cylinder was placed in the measuring cylinder, and it was slowly lifted after pouring the trehalose), and the apparent specific volume was expressed as a value obtained by dividing the read volume by the weight of the trehalose.

[4] = Angle of repose (Sugiwara's instrument); assay type: physicochemical; settings: excipient powder
Text: Measured by means of a Sugiwara's instrument for measuring angle of repose (Yakuzaigaku 27, p. 260, 1965).

[5] = Whiteness of powder (color analyzer); assay type: physicochemical; settings: excipient powder
Description: (§1) For powder of trehalose or a pharmaceutical composition containing trehalose, values of L, a and b were measured with a color analyzer (TC-1800MKII, mfd. by Tokyo Denshoku Co., Ltd.), and the whiteness of the trehalose or pharmaceutical composition was calculated by the following equation: […]

[6] = Tablet hardness (Schleuniger hardness meter); assay type: physicochemical; settings: for Tablet hardness at a compression pressure of 1000 kg/cm^2: phenacetin granules; for Tablet hardness: listed as C
[7] = Wet granulation of phenacetin mixture with HPC binder solution: granule size and yield
[8] = Dissolution test (13th revised Japanese Pharmacopoeia) of phenacetin granules; assay type: physicochemical
Description: The wet granules obtained in Example 6 were subjected to a dissolution test according to the dissolution test prescribed in the 13th revised Japanese Pharmacopoeia. The first liquid listed in the Japanese Pharmacopoeia was used as a test liquid, and the drug dissolution rate after 5 minutes was measured. The dissolution rate was calculated by taking the total amount of the drug contained in the granules as 100%. […] In the case of the trehaloses J and K, the dissolution rate after 5 minutes was as very high as 80%.
The granules prepared from each of lactose and Mannit P in Comparative Example 4 were subjected to a dissolution test according to the dissolution test prescribed in the 13th revised Japanese Pharmacopoeia. The first liquid listed in the Japanese Pharmacopoeia was used as a test liquid, and the drug dissolution rate after 5 minutes was measured. The drug dissolution rate was calculated by taking the total amount of the drug contained in the granules as 100%. […] In the case of lactose and Mannit P, the dissolution rate after 5 minutes was lower than in the case of trehaloses J and K.

[9] = Water content (Karl Fisher) of tablets before and after storage; assay type: physicochemical; settings: tablets compressed at 500 kg/cm^2; 0 day; listed as C
Description: Determined as a value obtained by measuring about 0.1 g of trehalose and determining its water content by the Karl Fisher method.
One hundred grams of commercial “Trehaose” (available from Hayashibara Biochemical Laboratories, Inc.) was dissolved in water to a concentration of about 35 wt %, and the resulting solution was concentrated under reduced pressure with heating at 60° C. so as to have a concentration of about 75 wt %, and allowed to stand at room temperature to precipitate crystals, which were washed with 50 ml of water. Glucose was removed by carrying out the above purification procedure once or twice, to increase the trehalose purity. Trehalose A was obtained by carrying out the purification procedure twice to obtain crystals, drying the crystals, grinding the dried crystals with a bantam mill (number of revolutions 15,000 rpm, feed rate 5 kg/hr, and screen opening 2.0 mmφ), and then sifting the ground crystals through a […]. Trehalose B was obtained by carrying out the purification procedure once to obtain crystals, drying the crystals, grinding the dried crystals with a bantam mill (number of revolutions 10,000 rpm, feed rate 5 kg/hr, and screen opening 2.00 mmφ), and then sifting the ground crystals through a 350-μm screen. Trehalose C was obtained by carrying out the purification procedure once to obtain crystals, drying the crystals, grinding the dried crystals with a bantam mill (number of revolutions 8,000 rpm, feed rate 5 kg/hr, and screen opening 2.0 mmφ), and then sifting the ground crystals through a 350-μm screen. […] Each of trehaloses A to C was compressed into tablets at a compression pressure of 500 kg/cm^2, and the tablet hardness immediately after the compression and the tablet hardness after standing for 3 days in an atmosphere of 40° C. and 75% RH after the compression were compared.
“Trehaose” (available from Hayashibara Bioscience Laboratories Co., Ltd.) was purified once by the method described in Example 1 to obtain crystals, which were dried, ground with a bantam mill (number of revolutions 12,000 rpm, feed rate 5 kg/hr, and screen opening 2.0 mmφ) and then dried at 105° C. for 4 hours to obtain trehalose anhydrous crystals. These crystals were compressed into tablets at a compression pressure of 500 kg/cm^2, and the tablet hardnesses of the tablets were compared in the same manner as in Example 1.

[10] = Change in whiteness of excipient mixed with drug at 40° C. and 75% RH (reactivity); assay type: physicochemical; settings: listed as C
Description: as §1
One gram of each of the trehaloses obtained in Example 1 and 1 g of isoniazid were mixed and then allowed to stand in an atmosphere of 40° C. and 75% RH, and the change in whiteness of the trehalose was observed. On the other hand, 1 g of each of the trehaloses obtained in Example 1 and 1 g of aminophyline were mixed and then allowed to stand in an atmosphere of 40° C. and 75% RH, and the change in whiteness of the trehalose was observed.
One gram of 100-mesh lactose (available from De Melkindustrie Veghel bv) or 1 g of Mannit S (available from Tohwa Kasei Co., Ltd.) and 1 g of aminophyline were mixed and then allowed to stand in an atmosphere of 40° C. and 75% RH, and the change in whiteness of the lactose or Mannit S was observed.
As a starting material. […]

[11] = Disintegration time according to Japanese Pharmacopoeia; assay type: physicochemical; settings: listed as C
Description: The disintegration time of each of six molded products was measured by the use of ion-exchanged water according to the disintegration time measuring method prescribed in the 13th revised Japanese Pharmacopoeia, and the average of measured values was calculated.

[12] = phenacetin granules, binding solution 180 g
[13] = phenacetin granules, binding solution 240 g
[14] = Example 10: as Example 9 but molded at 60 kg/cm^2
[15] = phenacetin 50/excipient 30/corn starch 10/microcrystalline cellulose 10, binding solution 100 g
[16] = phenacetin granules, binding solution 120 g
[17] = phenacetin granules, binding solution 160 g

Compound | Proportion of particles of 75 μm or more [1] | Average particle size [2] | Apparent specific volume [3] | Angle of repose [4] | Whiteness [5] | Tablet hardness at a compression pressure of 1000 kg/cm^2 ([6]; binding solution 180 g) | Tablet hardness at a compression pressure of 1000 kg/cm^2 ([6]; binding solution 240 g) | Average particle size of granules [7, 12] | Average particle size of granules [7, 13] | Tablet hardness at a compression pressure of 1000 kg/cm^2 ([6]; binding solution 100 g) | Average particle size of granules [7, 15] | Average particle size of granules [7, 16] | Average particle size of granules [7, 17] | also measured
OC[C@H]1O[C@@H](O[C@H]2[C@H](O)[C@@H](O)C(O)O[C@@H]2CO)[C@H](O)[C@@H](O)[C@H]1O (some centres unmarked) [200M lactose, lactose, reference compound] | 15% | 60 μm | 2.1 cm^3/g | 45 ° | 95% | 2.5 kgf | 3.7 kgf | 91 μm | 220 μm |  |  |  |  | Tablet hardness at a compression pressure of 1000 kg/cm^2 ([6]; binding solution 220 g): 3.0 kgf; Average particle size of granules ([7]; phenacetin granules, binding solution 220 g): 150 μm; Drug dissolution rate after 5 min. ([8]; binding solution 240, first liquid of Japanese Pharmacopoeia): 60%
OC[C@@H](O)[C@@H](O)[C@H](O)[C@H](O)CO [Mannit P, reference compound] | 20% | 47 μm | 2.1 cm^3/g | 45 ° | 96% | 3.9 kgf | 3.1 kgf | 106 μm | 313 μm |  |  |  |  | Tablet hardness at a compression pressure of 1000 kg/cm^2 ([6]; binding solution 200 g): 3.0 kgf; Average particle size of granules ([7]; phenacetin granules, binding solution 200 g): 144 μm; Drug dissolution rate after 5 min. ([8]; binding solution 200, first liquid of Japanese Pharmacopoeia): 70%
OC[C@H]1O[C@H](O[C@H]2O[C@H](CO)[C@@H](O)[C@H](O)[C@H]2O)[C@H](O)[C@@H](O)[C@@H]1O [Trehalose C, trehalose] |  |  |  |  |  |  |  |  |  |  |  |  |  | Proportion of particles of 75 μm or more ([1]; listed as C): 73%; Average particle size ([2]; listed as C): 127 μm; Apparent specific volume ([3]; listed as C): 1.9 cm^3/g; Angle of repose ([4]; listed as C): 40 °; Whiteness ([5]; listed as C): 95%; Water content [9]: 9.8%; Tablet hardness ([6]; Example 8: molded product of trehalose only, molded at 30 kg/cm^2, dried overnight at 40° C.): 6.0 kg; Tablet hardness [6, 14]: 8.6 kg; Tablet hardness ([6]; process of Example 9: 950 g excipient + 50 g phenylpropanolamine hydrochloride, molded at 30 kg/cm^2): 5.6 kg; Tablet hardness ([6]; tablets compressed at 500 kg/cm^2, 0 day (immediately after compression)): 2.3 kgf; Tablet hardness ([6]; tablets compressed at 500 kg/cm^2, 3 days at 40° C. and 75% RH): 2.3 kgf; Whiteness ([10]; 1 g excipient + 1 g aminophyline, 0 day): 98%; Whiteness ([10]; 1 g excipient + 1 g aminophyline, 40° C. and 75% RH, 1 month): 93%; Whiteness ([10]; 1 g excipient + 1 g isoniazid, 0 day): 97%; Whiteness ([10]; 1 g excipient + 1 g isoniazid, 40° C. and 75% RH, 1 month): 93%; Disintegration time according to Japanese Pharmacopoeia ([11]; Example 8: molded product of trehalose only, 30 kg/cm^2): 10 s; Disintegration time according to Japanese Pharmacopoeia [11, 14]: 33 s; Disintegration time according to Japanese Pharmacopoeia ([11]; process of Example 9: 950 g excipient + 50 g phenylpropanolamine hydrochloride, 30 kg/cm^2): 10 s
OC[C@H]1O[C@H](O[C@H]2O[C@H](CO)[C@@H](O)[C@H](O)[C@H]2O)[C@H](O)[C@@H](O)[C@@H]1O [Trehalose J, trehalose] | 40% | 60 μm | 2.0 cm^3/g | 41 ° | 96% |  |  |  |  | 5.1 kgf | 110 μm | 130 μm | 270 μm | Tablet hardness at a compression pressure of 1000 kg/cm^2 ([6]; binding solution 120 g, listed as J): 4.7 kgf; Tablet hardness at a compression pressure of 1000 kg/cm^2 ([6]; binding solution 160 g): 3.0 kgf; Average particle size of granules ([7]; phenacetin granules, binding solution 120 g, listed as J): 130 μm; Drug dissolution rate after 5 min. ([8]; binding solution 120, first liquid of Japanese Pharmacopoeia): 80%
OC[C@H]1O[C@H](O[C@H]2O[C@H](CO)[C@@H](O)[C@H](O)[C@H]2O)[C@H](O)[C@@H](O)[C@@H]1O [Trehalose K, trehalose] | 21% | 50 μm | 2.1 cm^3/g | 42 ° | 97% |  |  |  |  | 5.0 kgf | 120 μm | 140 μm | 180 μm | Tablet hardness at a compression pressure of 1000 kg/cm^2 ([6]; binding solution 120 g): 4.5 kgf; Tablet hardness at a compression pressure of 1000 kg/cm^2 ([6]; binding solution 160 g, listed as K): 2.9 kgf; Average particle size of granules ([7]; phenacetin granules, binding solution 160 g, listed as K): 180 μm; Drug dissolution rate after 5 min. ([8]; binding solution 160, first liquid of Japanese Pharmacopoeia): 80%
